20 compounds from patent US7745641B2, “Nitrogen-containing heterocyclic compound” (Kyowa Hakko Kirin Co., Ltd., priority 2005, dated 2010) can be followed below.

Some results are limits rather than exact numbers.

The test system of data set [1] is Aurora. Briefly: Aurora inhibitory activity using Western blotting method (phosphorylation of histone H3 Ser10). Format: cell-based, human. The following applies: 10 μmol/L, 30 minutes, HCT116 cells accumulated in M phase with Nocodazole. The source says: It is known that Aurora phosphorylates Ser10 of histone H3 in the G2/M phase during the cell cycle [Molecular and Cellular Biology, Vol. 22, p. 874 (2002)]. Consequently, the inhibition of phosphorylation of histone H3 Ser10 in cells was detected by a Western blotting method using human colon cancer cell line HCT116 cells accumulated in the M phase. McCoy's 5A culture medium (GIBCO, Catalogue No. 16600-082) containing 10% bovine fetus serum (GIBCO, Catalogue No. 10099-141) was used for the cultivation of the cells. The HCT116 cells were inoculated and then treated with Nocodazole (Sigma Corporation, Catalogue No. M-1404) so that the cell cycle was accumulated to the M phase. A test compound (final concentration: 10 μmol/L) was added thereto, and the cells were incubated at 37° C. for 30 minutes. The cells were then recovered and washed with a phosphate buffered saline (PBS) once. The cells were suspended in a cell-solubilizing solution (50 mmol/L 2-[4-(2-hydroxyethyl)-1-piperazinyl]ethanesulfonic acid (HEPES) (pH 7.4), 150 mmol/L NaCl, 1 mmol/L ethylenediamine-N,N,N′,N′-tetraacetic acid disodium salt dihydrate (EDTA), 2.5 mmol/L ethylene glycol bis(2-aminoethylether)-N,N,N′,N′-tetraacetic acid (EGTA), 0.1% Tween-20 (Bio-Rad Laboratories Inc., Catalogue No. 170-6531), 10% β-glycerophosphate, 1 mmol/L NaF, 0.1 mmol/L Na3VO4, 1 mmol/L Pefabloc SC (Roche Diagnostics K.K., Catalogue No. 1 429 868), and Complete EDTA-free (Roche Diagnostics K.K., Catalogue No. 1 873 580)}, and the suspension was frozen and thawed. Subsequently, the supernatant obtained by centrifugal separation was used as a cell extraction solution. SDS-PAGE was performed using a 12.5% polyacrylamide gel under the condition that the amount of protein per sample was 30 μg in accordance with the method used by Laemmli et al. The protein was transferred onto a PVDF membrane (Millipore Corporation, Catalogue No. IPVH304F0) by a semi-dry method. The membrane was allowed to react with anti-phosphorylated histone H3 Ser10 antibody (Upstate Inc., Catalogue No. 06-570) used as a primary antibody, and an HRP-labeled anti-rabbit IgG antibody (Amersham biosciences, Catalogue No. NA934V) used as a secondary antibody. Subsequently, […] was detected using a SuperSignal West Pico chemiluminescence substrate (Pierce, Catalogue No. 34077).
(Immunoblotting shows a protein as a band on a membrane.)

The test system of data set [2] is HCT116 cells. Briefly: Evaluation of Aurora inhibitory activity by analysis of nuclear morphology (enlarged lobed nuclei). Format: cell-based, human. As to conditions: concentration in the range of 0.1 to 1 μmol/L, 17 hours contact; optimal concentration different in each compound. As for the experimental part:
281 (2003)]. Consequently, enlarged lobed nuclei-inducibility of test compounds for HCT116 cells was evaluated. McCoy's 5A culture medium (GIBCO, Catalogue No. 16600-082) containing 10% bovine fetus serum (GIBCO, Catalogue No. 10099-141) was used for the cultivation of the cells. HCT116 cells were inoculated and, 24 hours later, each test compound was added thereto.

As for `Cl.O=C1NCc2c(C#CCO)ccc(-c3cc4cc(CN5CCCCC5)ccc4[nH]3)c21` [Compound 321, 4-(3-Hydroxy-1-propinyl)-7-[1H-5-(piperidinomethyl)indol-2-yl]isoindolinone hydrochloride], the “suppression of the phosphorylation of histone H3 Ser10 in HCT116 cells” value (“suppression” for short) in data set [1] was “almost completely suppressed”. The “ability of inducing enlarged lobed nuclei for HCT116 cells” value (from here on “ability”) in data set [2] is given as “show ability of inducing enlarged lobed nuclei”.

For `COc1cc(-c2cc3cc(N4CCN(C)CC4)ccc3[nH]2)c2c(c1OS(C)(=O)=O)CNC2=O.Cl.Cl` [Compound 457, 4-Methanesulfonyloxy-5-methoxy-7-[1H-5-(4-methylpyperazin-1-yl)indol-2-yl]isoindolinone dihydrochloride], the “suppression” value in data set [1] is reported as “almost completely suppressed”. Besides, in data set [2], the “ability” value is “show ability of inducing enlarged lobed nuclei”.

Turning to `CNCc1ccc2[nH]c(-c3cc(OC)c(OS(C)(=O)=O)c4c3C(=O)NC4)cc2c1.Cl` [Compound 375, 4-Methanesulfonyloxy-5-methoxy-7-[1H-5-(methylaminomethyl)indol-2-yl]isoindolinone hydrochloride], the “suppression” value in data set [1] is “almost completely suppressed”. The “ability” value in data set [2] was “show ability of inducing enlarged lobed nuclei”.

For orientation: melting point means the temperature of the solid-liquid transition. Compound `O=C1NCc2c(Cl)ccc(-c3cc4cc(C(=O)N5CCN(CCO)CC5)ccc4[nH]3)c21` [Compound 23, 4-Chloro-7-{1H-5-[4-(2-hydroxyethyl)piperazin-1-ylcarbonyl]indol-2-yl}isoindolinone] showed a melting point of over 295 °C.

In the case of `O=C1NCc2c(Cl)ccc(-c3cc4cc(C(=O)N5CCN(CCOCCO)CC5)ccc4[nH]3)c21` [Compound 109, 4-Chloro-7-{1H-5-[4-(2-(2-hydroxyethoxy)ethyl)piperazin-1-ylcarbonyl]indol-2-yl}isoindolinone], the melting point stood at 255 °C.

`Cl.O=C1NCc2c(O)ccc(-c3cc4cc(CN5CCCCC5)ccc4[nH]3)c21` [Compound 139, 4-Hydroxy-7-[1H-5-(piperidinomethyl)indol-2-yl]isoindolinone hydrochloride]: the “suppression” value in data set [1] was “almost completely suppressed”. For the same compound, in data set [2], the “ability” value was “show ability of inducing enlarged lobed nuclei”.

Compound `O=C1NCc2c(Cl)ccc(-c3cc4cc(C(=O)N5CCN(c6ccccn6)CC5)ccc4[nH]3)c21` [Compound 107, 4-Chloro-7-{1H-5-[4-(pyridin-2-yl)piperazin-1-ylcarbonyl]indol-2-yl}isoindolinone] displayed a melting point of over 295 °C.

Turning to `Cl.O=C1NCc2c(Cl)ccc(-c3cc4cc(CNCCO)ccc4[nH]3)c21` [Compound 32, 4-Chloro-7-{1H-5-[(2-hydroxyethyl)aminomethyl]indol-2-yl}isoindolinone hydrochloride], the “suppression” value in data set [1] is recorded as “almost completely suppressed”. Besides, the “ability” value in data set [2] is “show ability of inducing enlarged lobed nuclei”.

On to `CN(C)Cc1ccc2[nH]c(-c3cc(OCCCO)c(Cl)c4c3C(=O)NC4)cc2c1.Cl` [Compound 431, 4-Chloro-5-(3-hydroxypropoxy)-7-[1H-5-(dimethylaminomethyl)indol-2-yl]isoindolinone hydrochloride], for which the “suppression” value in data set [1] is “almost completely suppressed”. Further, in data set [2], the “ability” value is given as “show ability of inducing enlarged lobed nuclei”.

Consider `COc1cc(-c2cc3cc(CN4CCCCC4)ccc3[nH]2)c2c(c1OS(=O)(=O)c1ccsc1)CNC2=O.Cl` [Compound 407, 4-(3-Thiophenesulfonyloxy)-5-methoxy-7-[1H-5-(piperidinomethyl)indol-2-yl]isoindolinone hydrochloride], for which the “suppression” value in data set [1] is reported as “almost completely suppressed”. For the same compound, in data set [2], the “ability” value is recorded as “show ability of inducing enlarged lobed nuclei”.

Regarding `COCCCNCc1ccc2[nH]c(-c3cc(OC)c(OS(C)(=O)=O)c4c3C(=O)NC4)cc2c1.Cl` [Compound 454, 4-Methanesulfonyloxy-5-methoxy-7-[1H-5-(3-methoxypropylaminomethyl)indol-2-yl]isoindolinone hydrochloride], in data set [1], the “suppression” value is “almost completely suppressed”. The “ability” value in data set [2] is reported as “show ability of inducing enlarged lobed nuclei”.

As for `COc1cc(-c2cc3cc(CN4CCCC4)ccc3[nH]2)c2c(c1OS(=O)(=O)N(C)C)CNC2=O.Cl` [Compound 417, 4-(Dimethylsulfamoyloxy)-5-methoxy-7-[1H-5-(pyrrolidin-1-ylmethyl)indol-2-yl]isoindolinone hydrochloride], the “suppression” value in data set [1] is “almost completely suppressed”. Moreover, the “ability” value in data set [2] is given as “show ability of inducing enlarged lobed nuclei”.

Regarding `Cl.O=C1NCc2c(Cl)ccc(-c3cc4cc(CN5CCCCC5)ccc4[nH]3)c21` [Compound 29, 4-Chloro-7-[1H-5-(piperidinomethyl)indol-2-yl]isoindolinone hydrochloride], the “suppression” value in data set [1] was “almost completely suppressed”. Moreover, the “ability” value in data set [2] is listed as “show ability of inducing enlarged lobed nuclei”.

With `CCN(CC)Cc1ccc2[nH]c(-c3cc(OC)c(OS(C)(=O)=O)c4c3C(=O)NC4)cc2c1.Cl` [Compound 376, 4-Methanesulfonyloxy-5-methoxy-7-[1H-5-(diethylaminomethyl)indol-2-yl]isoindolinone hydrochloride], the “suppression” value in data set [1] is recorded as “almost completely suppressed”. Also, the “ability” value in data set [2] is on record as “show ability of inducing enlarged lobed nuclei”.

With `COc1cc(-c2cc3cc(CN(C)C)ccc3[nH]2)c2c(c1O)CNC2=O.Cl` [Compound 357, 4-Hydroxy-5-methoxy-7-[1H-5-(dimethylaminomethyl)indol-2-yl]isoindolinone hydrochloride], the “suppression” value in data set [1] is “almost completely suppressed”. For the same compound, in data set [2], the “ability” value is reported as “show ability of inducing enlarged lobed nuclei”.

Take `Cl.Cl.O=C1NCc2c(Cl)ccc(-c3cc4cc(CN5CCN(CCO)CC5)ccc4[nH]3)c21` [Compound 24, 4-Chloro-7-{1H-5-[4-(2-hydroxyethyl)piperazin-1-ylmethyl]indol-2-yl}isoindolinone dihydrochloride]: the “suppression” value in data set [1] is “almost completely suppressed”. Besides, in data set [2], the “ability” value is given as “show ability of inducing enlarged lobed nuclei”.

Regarding `Cl.O=C1NCc2c(-c3ccco3)ccc(-c3cc4cc(CN5CCCCC5)ccc4[nH]3)c21` [Compound 143, 4-(Furan-2-yl)-7-[1H-5-(piperidinomethyl)indol-2-yl]isoindolinone hydrochloride], in data set [1], the “suppression” value was “almost completely suppressed”. Also, the “ability” value in data set [2] is recorded as “show ability of inducing enlarged lobed nuclei”.

As for `Cl.O=C1NCc2c(Cl)ccc(-c3cc4cc(C(=O)N5CCNCC5)ccc4[nH]3)c21` [Compound 22], the “suppression” value in data set [1] is reported as “almost completely suppressed”. Further, the “ability” value in data set [2] is “show ability of inducing enlarged lobed nuclei”.

Consider `Cl.NS(=O)(=O)Oc1ccc(-c2cc3cc(CN4CCCCC4)ccc3[nH]2)c2c1CNC2=O` [Compound 231, 4-Sulfamoyloxy-7-[1H-5-(piperidinomethyl)indol-2-yl]isoindolinone hydrochloride], for which the “suppression” value in data set [1] is recorded as “almost completely suppressed”. In addition, in data set [2], the “ability” value is listed as “show ability of inducing enlarged lobed nuclei”.

In the case of `COc1cc(-c2cc3cc(CN(C)C)ccc3[nH]2)c2c(c1OS(=O)(=O)c1ccccn1)CNC2=O.Cl` [Compound 412, 4-(2-Pyridinesulfonyloxy)-5-methoxy-7-[1H-5-(dimethylaminomethyl)indol-2-yl]isoindolinone hydrochloride], the “suppression” value in data set [1] is listed as “almost completely suppressed”. Further, the “ability” value in data set [2] is given as “show ability of inducing enlarged lobed nuclei”.
